Measured values: publication PMC6271079, “Amino Acid Derivatives of Ligustrazine-Oleanolic Acid as New Cytotoxic Agents” (Molecules, 2014)

Experiments:
[1] = test system: HepG2, HT-29, Hela and BGC-823; assay: MTT cytotoxicity, summary statements over the cell lines; assay type: cell-based, human; settings: Homo sapiens, HepG2, HT-29, Hela and BGC-823, MTT; read-out: IC50, cytotoxicity on all four cancer cell lines
Procedure: (§1) The cytotoxicity of these compounds was tested on five cells lines by the standard MTT assay. The human cancer cells lines (HepG2, HT-29, Hela, BGC-823) and MDCK cells were provided by the Chinese Academy of Medical Sciences Peking Union Medical College. The tumor cells were cultured in RPMI 1640 medium supplemented with 10% (v/v) fetal bovine serum and 1% (v/v) penicillin-streptomycin (Thermo Technologies, New York, NY, USA) at 37 °C in a humidified atmosphere with 5% CO2. The growing tumor cells at a density 3 × 10^3 cells/mL were exposed to various concentrations of the tested drugs and incubated in a 96-well microtiter plate for 72 h (37 °C, 5% CO2). After MTT solution (20 μL, 5 mg/mL) was added to each well, the plate was incubated for a further 4 h. Then the media was removed. Formazan crystals were dissolved with DMSO (150 μL). After mixing well, the absorbance was quantified at 490 nm with a BIORAD 550 spectrophotometer (Bio-rad Life Science Development Ltd., Beijing, China). Wells containing no drugs were used to be blanks. The IC50 values were defined as the concentration of compounds that produced a 50% reduction of surviving cells and calculated using the Logit-method. Tumor cell growth inhibitory rate was calculated in the following Equation (1): % inhibition = (1 − Sample group OD/Control group OD) × 100%(1)

MDCK cells [2] = assay: MTT toxicity (nephrotoxicity) evaluation, MDCK; assay type: cell-based; settings: 72 h, Madin-Darby canine kidney cells
Procedure: as §1

HepG2 = assay: MTT cytotoxicity assay, HepG2; assay type: cell-based; settings: human hepatoma cells
Procedure: as §1

Hela = assay: MTT cytotoxicity assay, Hela; assay type: cell-based, human; settings: 72 h, cervical cancer cells
Procedure: as §1

HT-29 = assay: MTT cytotoxicity assay, HT-29; assay type: cell-based; settings: human colorectal cancer cells
Procedure: as §1

BGC-823 = assay: MTT cytotoxicity assay, BGC-823; assay type: cell-based; settings: human gastric cancer cells
Procedure: as §1

[3] = MTT cytotoxicity, summary statements over the cell lines; assay type: cell-based, human; settings: human (HepG2, HT-29, Hela, BGC-823); dog (MDCK), HepG2, HT-29, Hela, BGC-823 and MDCK cells, four cancer cell lines and MDCK, MTT; read-out: IC50, cytotoxicity on both cancer and MDCK cells
Procedure: as §1

MDCK cells [4] = assay: Giemsa staining, MDCK morphology; assay type: cell-based, canine; settings: 2 μM, 72 h, 200×
Procedure: HepG2 cells in logarithmic growth phase were cultured in 6-well plates for 24 h at 37 °C in a humidified atmosphere with 5% CO2. And then each group was treated with different concentrations of compound 6a for 72 h. The cell culture medium was discarded. And the cells were washed twice with PBS, kept in PBS/ethanol (1:1) for 2 min, fixated in ethanol for 10 min. After removing the ethanol, the cells were stained with Giemsa stain for 2 min and observed under inverted phase-contrast microscope at a magnification of 400×. MDCK cells in logarithmic growth phase were cultured in 6-well plates for 24 h at 37 °C in a humidified atmosphere with 5% CO2. The cells were treated with 2 μM of compound 6a and CDDP for 72 h. The same operation was experimented as described above, and the cells were observed under inverted phase-contrast microscope at a magnification of 200×.

Row | melting point | Structure (SMILES) | IC50 [1] | IC50 (MDCK cells [2]; Canis lupus familiaris, MDCK) | IC50 (HepG2; HepG2, 72 h) | IC50 (Hela; Homo sapiens) | IC50 (HT-29; HT-29, 72 h) | IC50 (BGC-823; BGC-823, 72 h) | IC50 at 72 h [3] | IC50 (MDCK cells [2]) | Morphological changes of MDCK cells (Giemsa staining) (MDCK cells [4]) | IC50 (HepG2; 72 h) | IC50 (Hela) | IC50 (HT-29; 72 h) | IC50 (BGC-823; 72 h)
1 | 89.6 to 91.3 °C | Cc1nc(C)c(COC(=O)[C@]23CCC(C)(C)CC2C2=CCC4[C@@]5(C)CC[C@H](OC(=O)[C@@H]6CCCN6)C(C)(C)C5CC[C@@]4(C)[C@]2(C)CC3)nc1C (stereo partly drawn) [Compound 6c, 3β-L-Proline ester olean-12-en-28-oic acid-3,5,6-trimethylpyrazin-2-methyl ester] | < 8 µM | 5.03 µM | 2.39 µM | 6.75 µM | 3.21 µM | 4.98 µM | – | – | – | – | – | – | –
2 | 124.6 to 125.8 °C | Cc1nc(C)c(COC(=O)[C@]23CCC(C)(C)CC2C2=CCC4[C@@]5(C)CC[C@H](OC(=O)[C@@H]6CCC(=O)N6)C(C)(C)C5CC[C@@]4(C)[C@]2(C)CC3)nc1C (stereo partly drawn) [Compound 6j, 3β-L-Pyroglutamate ester olean-12-en-28-oic acid-3,5,6-trimethylpyrazin-2-methyl ester] | – | – | – | – | – | – | – | – | – | – | – | – | –
3 | 81.9 to 82.5 °C | CNCC(=O)O[C@H]1CC[C@@]2(C)C(CC[C@]3(C)C2CC=C2C4CC(C)(C)CC[C@]4(C(=O)OCc4nc(C)c(C)nc4C)CC[C@]23C)C1(C)C (stereo partly drawn) [Compound 6i, 3β-L-Sarcosine ester olean-12-en-28-oic acid-3,5,6-trimethylpyrazin-2-methyl ester] | – | 15.8 µM | 10.2 µM | 12.6 µM | 16.9 µM | 16 µM | – | – | – | – | – | – | –
4 | 89.7 to 92.1 °C | Cc1nc(C)c(COC(=O)[C@]23CCC(C)(C)CC2C2=CCC4[C@@]5(C)CC[C@H](OC(=O)[C@H](C)N)C(C)(C)C5CC[C@@]4(C)[C@]2(C)CC3)nc1C (stereo partly drawn) [Compound 6b, 3β-L-Alanine ester olean-12-en-28-oic acid-3,5,6-trimethylpyrazin-2-methyl ester] | < 8 µM | 5.12 µM | 2.32 µM | 7.69 µM | 4.77 µM | 4.47 µM | – | – | – | – | – | – | –

The remaining lines, values behind:

Row | Structure (SMILES) | melting point | IC50 [1] | IC50 (MDCK cells [2]; Canis lupus familiaris, MDCK) | IC50 (HepG2; HepG2, 72 h) | IC50 (Hela; Homo sapiens) | IC50 (HT-29; HT-29, 72 h) | IC50 (BGC-823; BGC-823, 72 h) | IC50 at 72 h [3] | IC50 (MDCK cells [2]) | Morphological changes of MDCK cells (Giemsa staining) (MDCK cells [4]) | IC50 (HepG2; 72 h) | IC50 (Hela) | IC50 (HT-29; 72 h) | IC50 (BGC-823; 72 h)
5 | Cc1nc(C)c(COC(=O)[C@]23CCC(C)(C)CC2C2=CCC4[C@@]5(C)CC[C@H](OC(=O)[C@@H](N)Cc6ccccc6)C(C)(C)C5CC[C@@]4(C)[C@]2(C)CC3)nc1C (stereo partly drawn) [Compound 6h, 3β-L-Phenylalanine ester olean-12-en-28-oic acid-3,5,6-trimethylpyrazin-2-methyl ester] | 82.4 to 83.8 °C | – | 8.12 µM | 8.22 µM | > 25 µM | 9.5 µM | > 25 µM | – | – | – | – | – | – | –
6 | Cc1nc(C)c(COC(=O)[C@]23CCC(C)(C)CC2C2=CCC4[C@@]5(C)CC[C@H](OC(=O)[C@@H](N)Cc6c[nH]c7ccccc67)C(C)(C)C5CC[C@@]4(C)[C@]2(C)CC3)nc1C (stereo partly drawn) [Compound 6k, 3β-L-Tryptophan ester olean-12-en-28-oic acid-3,5,6-trimethylpyrazin-2-methyl ester] | 206.9 to 207.7 °C | – | 10.8 µM | 11.4 µM | > 25 µM | > 25 µM | 10 µM | – | – | – | – | – | – | –
7 | Cc1nc(C)c(COC(=O)[C@]23CCC(C)(C)CC2C2=CCC4[C@@]5(C)CC[C@H](OC(=O)[C@@H](N)CCCCN)C(C)(C)C5CC[C@@]4(C)[C@]2(C)CC3)nc1C (stereo partly drawn) [Compound 6g, 3β-L-Lysine ester olean-12-en-28-oic acid-3,5,6-trimethylpyrazin-2-methyl ester] | 87.5 to 88.2 °C | – | 2.31 µM | 2.27 µM | 2.38 µM | 2.35 µM | 2.48 µM | < 2.5 µM | – | – | – | – | – | –
8 | [NH2][Pt]([NH2])([Cl])[Cl] [CDDP, cisplatin, reference compound] | – | – | – | – | – | – | – | – | 3.69 µM | less density, larger volume, lighter nuclear staining and cellular atypia | 2.86 µM | 9.84 µM | 6.11 µM | 6.82 µM
9 | Cc1nc(C)c(COC(=O)[C@]23CCC(C)(C)CC2C2=CCC4[C@@]5(C)CC[C@H](OC(=O)[C@@H](N)C(C)C)C(C)(C)C5CC[C@@]4(C)[C@]2(C)CC3)nc1C (stereo partly drawn) [Compound 6f, 3β-L-Valine ester olean-12-en-28-oic acid-3,5,6-trimethylpyrazin-2-methyl ester] | 89.5 to 91 °C | – | 9.79 µM | 4.26 µM | > 25 µM | 5.96 µM | 9.52 µM | – | – | – | – | – | – | –
10 | Cc1nc(C)c(COC(=O)[C@]23CCC(C)(C)CC2C2=CCC4[C@@]5(C)CC[C@H](OC(=O)[C@@H](N)CC(C)C)C(C)(C)C5CC[C@@]4(C)[C@]2(C)CC3)nc1C (stereo partly drawn) [Compound 6d, 3β-L-Leucine ester olean-12-en-28-oic acid-3,5,6-trimethylpyrazin-2-methyl ester] | 89.6 to 91.6 °C | – | > 25 µM | > 25 µM | > 25 µM | > 25 µM | > 25 µM | – | – | – | – | – | – | –
11 | CC[C@H](C)[C@H](N)C(=O)O[C@H]1CC[C@@]2(C)C(CC[C@]3(C)C2CC=C2C4CC(C)(C)CC[C@]4(C(=O)OCc4nc(C)c(C)nc4C)CC[C@]23C)C1(C)C (stereo partly drawn) [Compound 6e, 3β-L-Isoleucine ester olean-12-en-28-oic acid-3,5,6-trimethylpyrazin-2-methyl ester] | 89.8 to 90.7 °C | – | > 25 µM | 5.97 µM | > 25 µM | 9.83 µM | > 25 µM | – | – | – | – | – | – | –
12 | Cc1nc(C)c(COC(=O)[C@]23CCC(C)(C)CC2C2=CCC4[C@@]5(C)CC[C@H](OC(=O)[C@@H](N)CO)C(C)(C)C5CC[C@@]4(C)[C@]2(C)CC3)nc1C (stereo partly drawn) [Compound 6l, 3β-L-Serine ester olean-12-en-28-oic acid-3,5,6-trimethylpyrazin-2-methyl ester] | 107.1 to 108.5 °C | < 8 µM | 3.12 µM | 4.78 µM | 5.22 µM | 4.83 µM | 4.9 µM | – | – | – | – | – | – | –
